Consider 2 compounds from patent US20250367132A1, “SOLID LIPID NANOPARTICLES FOR ENCAPSULATION AND DELIVERY OF BIOACTIVE COMPOUNDS AND METHODS OF MAKING THE SAME” (Yubeck, Inc., priority 2024, published 2025).

A short description of series [1]: Dynamic light scattering (DLS): mean particle size and polydispersity index. Type of series: physicochemical. As for the experimental part: SLNs are characterized by particle size distribution, polydispersity index (PDI), surface charge (zeta potential), encapsulation efficiency (EE %), and loading capacity (LC %), all of which influence their stability, bioavailability, and controlled release properties. Particle size distribution is measured using dynamic light scattering (DLS), nanoparticle tracking analysis (NTA), or any equivalent method, ensuring SLN sizes range from 10 nm approximately 1000 nm. PDI, measured by DLS or NTA indicates uniformity of particle size distribution. Zeta potential, measured using […], electrophoretic light scattering (ELS), or an equivalent method, must have an absolute value of ≥25 mV, ensuring sufficient electrostatic repulsion to maintain colloidal stability. Encapsulation efficiency (EE %) and loading capacity (LC %) are measured using UV-Vis Spectroscopy, high performance liquid chromatography, or liquid chromatography mass spectrometry (LC-MS), amino acid analysis (AAA), or any equivalent method, with target values defined for each bioactive compound.
An example of the manufacturing process of whole Spirulina SLNs is disclosed below. In accordance with an aspect of the present invention, palmitic acid is dissolved in 100% ethanol (1.5 mg/mL) and heated to 70° C. Natural and sustainable ingredients that can be used as alternatives to palmitic acid, include stearic acid, behenic acid, lauric acid, cetyl alcohol, cocoa butter, shea butter, carnauba wax, candelilla wax, beeswax, and glycerol monostearate (GMS). Other natural lipids, such as oleic acid, linoleic acid, alpha-linolenic acid, gamma-linolenic acid, triglycerides such as medium-chain triglycerides (MCTs) or long-chain triglycerides (LCTs), and natural oils such as coconut oil, olive oil, and sunflower oil. Additional naturally derived lipid components such as 1-monolaurin, phosphatidylcholine, and phosphatidylethanolamine may also be used. […] The Spirulina SLNs are quantified using […] to measure the mean particle, PDI, and zeta potential. […]

The conditions of series [2]: cited from earlier work.

With `C=C1CC[C@H](O)C/C1=C/C=C1\CCC[C@]2(C)[C@@H]([C@H](C)CCCC(C)C)CC[C@@H]12` [vitamin D3, cholecalciferol], the PDI in series [1] (non-encapsulated, in solution) was found to be 0.10±0.01%; in series [1] (unencapsulated, before SLN fabrication), 10.17±2.26. For the same compound, in series [1] (unencapsulated, in ethanol, before SLN fabrication), the “mean particle size (initial diameter)” value was determined as 124.6±0.1 nm.
On to phycocyanin, for which the “Acceptable Daily Intake (ADI)” value in series [2] (FDA, color additive petitions) is given as 1.0-1.8 g/p/d. The “No Observed Effect Level (NOEL)” value in series [2] (GRAS submission) is reported as 108-184.5 g/p/d.
